In PubChem BioAssay (NCI):
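In this assay, cells in 96-well plates receive the compound at five concentrations for 48 hours. Endpoints are linearly interpolated between the surrounding concentrations. TGI: concentration producing complete growth inhibition.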

Legend:
Experiment in all cases: NCI-60 cell line screen, 48 h
[1] = system: A549 NSCLC
[2] = system: K-562 leukemia
[3] = system: SK-MEL-28 melanoma
[4] = system: NCI-H23 lung
[5] = system: MALME-3M melanoma
[6] = system: UO-31 renal
[7] = system: OVCAR-3 ovarian
[8] = system: HCT-15 colon
[9] = system: RPMI-8226 leukemia
[10] = system: SK-MEL-5 melanoma
[11] = system: BT-549 breast
[12] = system: SF-268 CNS
[13] = system: CCRF-CEM leukemia
[14] = system: MCF7 breast
[15] = system: T-47D breast
[16] = system: MDA-N
[17] = system: SN12C renal
[18] = system: UACC-62 melanoma
[19] = system: TK-10 renal
[20] = system: U251 CNS

| SMILES | TGI [1] | TGI [2] | TGI [3] | TGI [4] | TGI [5] | TGI [6] | TGI [7] | TGI [8] | TGI [9] | TGI [10] | TGI [11] | TGI [12] | TGI [13] | TGI [14] | TGI [15] | TGI [16] | TGI [17] | TGI [18] | TGI [19] | TGI [20] |
| --- | --- | --- | --- | --- | --- | --- | --- | --- | --- | --- | --- | --- | --- | --- | --- | --- | --- | --- | --- | --- |
| CC(C)(C)c1cc(-c2cc(C(C)(C)C)[nH]n2)n[nH]1 | > 100 µM | > 100 µM | > 100 µM | > 100 µM | > 100 µM | > 100 µM | > 100 µM | > 100 µM | > 100 µM | > 100 µM | > 100 µM | > 100 µM | > 100 µM | > 100 µM | > 100 µM | > 100 µM | > 100 µM | > 100 µM | > 100 µM | > 100 µM |
| COc1cc(C(=O)/C=C/c2ccc(OCCSCCCCCCCCCCSCCOc3ccc(/C=C/C(=O)c4cc(OC)c(OC)c(OC)c4)cc3)cc2)cc(OC)c1OC | > 100 µM | > 100 µM | > 100 µM | > 100 µM | > 100 µM | > 100 µM | > 100 µM | > 100 µM | > 100 µM | > 100 µM | > 100 µM | > 100 µM | > 100 µM | > 100 µM | > 100 µM | > 100 µM | > 100 µM | > 100 µM | > 100 µM | > 100 µM |
| C=CCc1[nH]c2c(OCc3ccccc3)cc(N(CC=C)C(C)=O)cc2c1C | 26.2 µM | > 100 µM | 33.5 µM | 26.8 µM | 30.4 µM | 21.3 µM | 29.6 µM | 25.6 µM | 67.6 µM | 24 µM | 29.3 µM | 24.6 µM | 75.9 µM | 24.9 µM | 26.4 µM | 27.9 µM | 32 µM | 26.9 µM | 30 µM | 25.3 µM |
| CCCC(=O)NC(Nc1cc(C)ccn1)(C(=O)OCC)C(F)(F)F (stereo not given) | > 100 µM | > 100 µM | > 100 µM | > 100 µM | > 100 µM | > 100 µM | > 100 µM | > 100 µM | > 100 µM | > 100 µM | > 100 µM | > 100 µM | > 100 µM | > 100 µM | > 100 µM | > 100 µM | > 100 µM | > 100 µM | > 100 µM | > 100 µM |
